Source: patent US10316020B2, “Indane derivatives and the use thereof as soluble guanylate cyclase activators” (NOVARTIS AG, priority 2015, dated 2019)

These compounds were tested against T1, soluble guanylate cyclase (GUCYA3/GUCYB3) overexpressed in CHO cells (Homo sapiens, UniProt Q02108+Q02153) (assay: CHO cellular assay (cGMP production, HTRF)). Conditions: CHO GUCY clone 8E10; assay buffer with 1 mM IBMX, 20 uM ODQ; 1 h at room temperature; cGMP HTRF; quantification limit 0.0005 μM; read-out: Mean EC50.
T1 construct: expressed in transfected cells
T1 sequence (Q02108 1-690 partner): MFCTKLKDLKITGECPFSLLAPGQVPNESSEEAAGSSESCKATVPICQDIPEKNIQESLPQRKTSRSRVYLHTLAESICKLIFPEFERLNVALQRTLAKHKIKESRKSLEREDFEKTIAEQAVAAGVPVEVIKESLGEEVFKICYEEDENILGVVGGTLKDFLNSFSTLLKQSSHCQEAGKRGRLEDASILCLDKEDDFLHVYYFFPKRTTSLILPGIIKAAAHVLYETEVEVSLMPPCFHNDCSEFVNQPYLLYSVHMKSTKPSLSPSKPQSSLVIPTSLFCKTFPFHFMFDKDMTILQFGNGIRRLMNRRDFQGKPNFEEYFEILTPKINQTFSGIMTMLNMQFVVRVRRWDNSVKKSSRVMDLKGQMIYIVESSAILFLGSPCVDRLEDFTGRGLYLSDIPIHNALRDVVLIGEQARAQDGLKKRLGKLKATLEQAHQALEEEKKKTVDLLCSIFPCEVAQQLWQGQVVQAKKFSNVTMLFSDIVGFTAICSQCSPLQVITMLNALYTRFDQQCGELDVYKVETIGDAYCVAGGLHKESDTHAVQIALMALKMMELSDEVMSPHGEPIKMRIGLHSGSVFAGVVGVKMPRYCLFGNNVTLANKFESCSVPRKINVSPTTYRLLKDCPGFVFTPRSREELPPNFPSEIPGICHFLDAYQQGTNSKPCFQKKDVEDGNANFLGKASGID
T1 sequence (Q02153 1-619): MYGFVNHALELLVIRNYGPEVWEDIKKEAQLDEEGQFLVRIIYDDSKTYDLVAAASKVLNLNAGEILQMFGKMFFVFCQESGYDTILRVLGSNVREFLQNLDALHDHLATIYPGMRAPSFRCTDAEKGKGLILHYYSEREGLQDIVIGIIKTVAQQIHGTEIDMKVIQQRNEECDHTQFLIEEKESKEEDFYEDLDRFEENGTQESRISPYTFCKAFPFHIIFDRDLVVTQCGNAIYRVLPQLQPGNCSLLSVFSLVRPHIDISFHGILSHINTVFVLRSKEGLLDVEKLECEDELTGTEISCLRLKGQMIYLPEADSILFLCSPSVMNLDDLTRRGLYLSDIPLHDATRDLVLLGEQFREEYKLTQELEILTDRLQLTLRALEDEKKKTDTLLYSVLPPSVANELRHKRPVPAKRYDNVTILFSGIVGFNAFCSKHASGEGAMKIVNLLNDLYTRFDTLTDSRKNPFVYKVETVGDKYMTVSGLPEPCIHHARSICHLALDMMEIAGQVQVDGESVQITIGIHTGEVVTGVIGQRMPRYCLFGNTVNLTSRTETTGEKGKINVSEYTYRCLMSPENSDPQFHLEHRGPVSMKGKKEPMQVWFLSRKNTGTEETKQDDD
Assay type: cell-based
Source text: Chinese hamster ovary (CHO) cells overexpressing soluble guanylate cyclase were generated to test the effect of sGC activators in a cellular context. Human cDNAs for GUCYA3 (RefSeq: NM_000856.3) and GUCYB3 (RefSeq: NM_000857.1) were amplified by PCR from a HUVEC (Human Umbilical Vein Endothelial Cells) cDNA library and cloned into mammalian expression vectors. CHO K1 cells (ATCC CCL-61) were transfected using Lipofectamine 2000 following manufacturer's instructions and stably expressing clones were identified by antibiotic selection. CHO GUCY clone 8E10 was used for subsequent experiments.
Cells were seeded at a density of 3000 cells/well in white 384-well proxyplates (Perkin Elmer) and incubated overnight, then the medium was removed and cells were washed with assay buffer (HBSS, 0.1% BSA, 1 mM IBMX, 20 uM ODQ). sGC activators were serially diluted in DMSO, then diluted in assay buffer prior to adding to cells (10 ul/well, final DMSO concentration 0.5%). Cells were incubated with compounds for 1 h at room temperature, then assayed for cGMP production using Cisbio cGMP HTRF kit (62GM2PEC) according to manufacturer's instructions.
The EC50s are calculated based on the amount of cGMP interpolated from the standard curve, using a 4-parameter sigmoidal dose-response.
Compounds of invention are active on sGC activation. Data in Table 1 collected using the assay of Biological Example 1.
`CCc1nc(NC2CCc3cccc(-c4cccc(-n5ncc(C(=O)O)c5OC)c4)c32)ccc1C1=CCN(C(=O)[C@H](C)O)CC1` (single isomer, unassigned) [Example 11A, 1-(3-((S or R)-3-((2-Ethyl-1′-((S)-2-hydroxypropanoyl)-1′,2′,3′,6′-tetrahydro-[3,4′-bipyridin]-6-yl)amino)-2,3-dihydro-1H-inden-4-yl)phenyl)-5-methoxy-1H-pyrazole-4-carboxylic acid] was tested, and the EC50 was 36 nM.
In the case of `CCc1nc(NC2CCc3cccc(-c4cccc(-n5ncc(C(=O)O)c5OC)c4)c32)ccc1C1=CCN(C(=O)[C@H](C)O)CC1` (single isomer, unassigned) [Example 11B, 1-(3-((R or S)-3-((2-ethyl-1′-((S)-2-hydroxypropanoyl)-1′,2′,3′,6′-tetrahydro-[3,4′-bipyridin]-6-yl)amino)-2,3-dihydro-1H-inden-4-yl)phenyl)-5-methoxy-1H-pyrazole-4-carboxylic acid], the EC50 is reported as 1.4 nM.
Work on `CCc1nc(NC2CCc3cccc(-c4cccc(-n5ncc(C(=O)O)c5OC)n4)c32)ccc1C1=CCN(C(=O)[C@H](C)O)CC1` (single isomer, unassigned) [Example 17A, 1-(6-((R or S)-3-((2-ethyl-1′-((S)-2-hydroxypropanoyl)-1′,2′,3′,6′-tetrahydro-[3,4′-bipyridin]-6-yl)amino)-2,3-dihydro-1H-inden-4-yl)pyridin-2-yl)-5-methoxy-1H-pyrazole-4-carboxylic acid] yielded an EC50 of 71 nM.
Work on `CCc1nc(NC2CCc3cccc(-c4cccc(-n5ncc(C(=O)O)c5OC)n4)c32)ccc1C1=CCN(C(=O)[C@H](C)O)CC1` (single isomer, unassigned) [Example 17B, 1-(6-((S or R)-3-((2-ethyl-1′-((S)-2-hydroxypropanoyl)-1′,2′,3′,6′-tetrahydro-[3,4′-bipyridin]-6-yl)amino)-2,3-dihydro-1H-inden-4-yl)pyridin-2-yl)-5-methoxy-1H-pyrazole-4-carboxylic acid] yielded an EC50 of 3.5 nM.
In the case of `CCc1cc(NC2CCc3cccc(-c4ccc(C)c(-n5ncc(C(=O)O)c5OC)c4)c32)ccc1C1CCN(C(=O)C2CC2)CC1` (single isomer, unassigned; (+)) [Example 7A, (+)-1-(5-(3-((4-(1-(Cyclopropanecarbonyl)piperidin-4-yl)-3-ethylphenyl)amino)-2,3-dihydro-1H-inden-4-yl)-2-methylphenyl)-5-methoxy-1H-pyrazole-4-carboxylic acid], the EC50 is reported as < 0.5 nM.
`CCc1cc(NC2CCc3cccc(-c4ccc(OC)c(-n5ncc(C(=O)O)c5OC)c4)c32)ccc1C1CCN(C(=O)C2CC2)CC1` (single isomer, unassigned; (+)) [Example 8A, (+)-1-(5-(3-((4-(1-(Cyclopropanecarbonyl)piperidin-4-yl)-3-ethylphenyl)amino)-2,3-dihydro-1H-inden-4-yl)-2-methoxyphenyl)-5-methoxy-1H-pyrazole-4-carboxylic acid] was tested, and the EC50 was < 0.5 nM.
For `CCc1cc(NC2CCc3cccc(-c4cccc(-n5ncc(C(=O)O)c5N)c4)c32)ccc1C1CCN(C(=O)C2CC2)CC1` (single isomer, unassigned; (+)) [Example 9A, (+)-5-Amino-1-(3-(3-((4-(1-(cyclopropanecarbonyl)piperidin-4-yl)-3-ethylphenyl)amino)-2,3-dihydro-1H-inden-4-yl)phenyl)-1H-pyrazole-4-carboxylic acid], the EC50 was 4 nM.
`CCc1nc(NC2CCc3cccc(-c4cccc(-n5ncc(C(=O)O)c5OC)c4)c32)ccc1C1=CCN(C(=O)C2CC2)CC1` (single isomer, unassigned; (+)) [Example 10A, (+)-1-(3-(3-((1′-(Cyclopropanecarbonyl)-2-ethyl-1′,2′,3′,6′-tetrahydro-[3,4′-bipyridin]-6-yl)amino)-2,3-dihydro-1H-inden-4-yl)phenyl)-5-methoxy-1H-pyrazole-4-carboxylic acid] was tested, and the EC50 was < 0.5 nM.
For `CCc1nc(NC2CCc3cccc(-c4cccc(-n5ncc(C(=O)O)c5OC)n4)c32)ccc1C1=CCN(C(=O)C2CC2)CC1` (single isomer, unassigned; (+)) [Example 16A, (+)-1-(6-(3-((1′-(Cyclopropanecarbonyl)-2-ethyl-1′,2′,3′,6′-tetrahydro-[3,4′-bipyridin]-6-yl)amino)-2,3-dihydro-1H-inden-4-yl)pyridin-2-yl)-5-methoxy-1H-pyrazole-4-carboxylic acid], the EC50 was < 0.5 nM.
In the case of `CCc1nc(NC2CCc3cccc(-c4cccc(-n5ncc(C(=O)O)c5NC)c4)c32)ccc1C1=CCN(C(=O)C2CC2)CC1` (single isomer, unassigned; (+)) [Example 22A, (+)-1-(3-(3-((1′-(Cyclopropanecarbonyl)-2-ethyl-1′,2′,3′,6′-tetrahydro-[3,4′-bipyridin]-6-yl)amino)-2,3-dihydro-1H-inden-4-yl)phenyl)-5-(methylamino)-1H-pyrazole-4-carboxylic acid], the EC50 is reported as < 0.5 nM.
Work on `CCc1cc(NC2CCc3cccc(-c4cccc(-n5ncc(C(=O)O)c5OC)c4)c32)ccc1C1CCN(C(=O)[C@H](C)O)CC1` (single isomer, unassigned; (-)) [Example 4B] yielded an EC50 of 110 nM.
Work on `CCc1cc(NC2CCc3cccc(-c4ccc(C)c(-n5ncc(C(=O)O)c5OC)c4)c32)ccc1C1CCN(C(=O)C2CC2)CC1` (single isomer, unassigned; (-)) [Example 7B, (−)-1-(5-(3-((4-(1-(Cyclopropanecarbonyl)piperidin-4-yl)-3-ethylphenyl)amino)-2,3-dihydro-1H-inden-4-yl)-2-methylphenyl)-5-methoxy-1H-pyrazole-4-carboxylic acid] yielded an EC50 of 2 nM.
With `CCc1cc(NC2CCc3cccc(-c4ccc(OC)c(-n5ncc(C(=O)O)c5OC)c4)c32)ccc1C1CCN(C(=O)C2CC2)CC1` (single isomer, unassigned; (-)) [Example 8B, (−)-1-(5-(3-((4-(1-(Cyclopropanecarbonyl)piperidin-4-yl)-3-ethylphenyl)amino)-2,3-dihydro-1H-inden-4-yl)-2-methoxyphenyl)-5-methoxy-1H-pyrazole-4-carboxylic acid] the EC50 was 86 nM.
For `CCc1cc(NC2CCc3cccc(-c4cccc(-n5ncc(C(=O)O)c5N)c4)c32)ccc1C1CCN(C(=O)C2CC2)CC1` (single isomer, unassigned; (-)) [Example 9B, (−)-5-Amino-1-(3-(3-((4-(1-(cyclopropanecarbonyl)piperidin-4-yl)-3-ethylphenyl)amino)-2,3-dihydro-1H-inden-4-yl)phenyl)-1H-pyrazole-4-carboxylic acid], the EC50 was 58 nM.
For `CCc1nc(NC2CCc3cccc(-c4cccc(-n5ncc(C(=O)O)c5OC)c4)c32)ccc1C1=CCN(C(=O)C2CC2)CC1` (single isomer, unassigned; (-)) [Example 10B, (−)-1-(3-(3-((1′-(Cyclopropanecarbonyl)-2-ethyl-1′,2′,3′,6′-tetrahydro-[3,4′-bipyridin]-6-yl)amino)-2,3-dihydro-1H-inden-4-yl)phenyl)-5-methoxy-1H-pyrazole-4-carboxylic acid], the EC50 was 149 nM.
